This test deals with ventricular papillary muscle cell of guinea pig. The test is described as follows: Action potential of the ventricular papillary muscle cell of guinea pig (electrophysiological recording). It counts as cell-based. The settings on record: screening stage; for percent change in action potential duration at 0.0005 µM / percent change in action potential duration at 0.005 µM / percent change in action potential duration at 0.05 µM: Cavia porcellus, 20 min, read-out: APD, Change rate (%); for APD, Post-administration: about 20 min perfusion; for Effect on the APD value of the action potential of the papillary muscle (in words): Table 3 summary. As for the experimental part: Method: One guinea pig was taken to violently hit the back of the brain such that it fainted. The common carotid artery was cut off for bleeding to kill the guinea pig. The chest was incised to expose the heart, and the ventricle was cut open along the interventricular septum to expose the lumen of the left ventricle. The papillary muscles were quickly taken out and placed in a Kreb's solution saturated with O2 (mixed gas of 95% O2 and 5% CO2) at 0° C. After the microscopic dressing, the papillary muscle specimen was fixed with a stainless steel needle on the silicone rubber at the bottom of the perfusion bath, and perfused with the oxygen-saturated Kreb's solution. The relevant parameters for perfusion: the temperature was 37±0.5° C., and the flow rate was 4 mL/min.
Cellular action potentials were recorded using a conventional electrophysiological method. The glass electrode filled with 3M KCl saturated solution and having a tip resistance of 15-30 MΩ was fixed on the microelectrode manipulator MP-2. The glass electrode was gently inserted into the superficial layer of the prepared papillary muscle specimen using a microelectrode pusher. The electrode was adjusted to provide the predetermined bioelectrical stimulation with the triple-channel SEN-7203 electronic stimulator and SS-202 J isolator. The bioelectrical signal was amplified by the MEZ-8301 amplifier and then input to the computerized electrophysiological recording and analysis system Powerlab 4/25. Subsequently, the relevant parameters of the action potential for the ventricular papillary muscle were analyzed through the analysis system. The relevant parameters for electrical stimulation: 30 ms latency, 7 ms wavewidth, 1 Hz frequency, 52.1 my stimulation intensity.
In the compound screening test stage, after the ventricular papillary muscle specimen of the guinea pig was fixed, it was first perfused with a normal Kreb's solution for about 85 minutes for stabilization, and the relevant parameters of the cellular action potential before administration were recorded at about 80 min after the start of perfusion. The three-limb tube was used to convert the perfusates containing the title compounds. The title compounds were continuously perfused for about 25 min successively with low (0.0005 μM), medium (0.005 μM), and high (0.05 μM) concentrations, respectively. At about 20 min after the start of drug perfusions at different concentrations, the relevant parameters of the action potentials for the ventricular papillary muscle of guinea pig were observed and recorded, respectively. The normal Kreb's solution was used to perfuse and elute for about 25 min during the intervals between drug perfusions at different concentrations.
The experiment was divided into the following five groups with 6 animals in each group: a vehicle control group, a 369 low dose (0.0005 μM) group, a 369 medium dose (0.005 μM) group, a 369 high dose (0.05 μM) group, and an amiodarone (10 μM) positive control group. After the ventricular papillary muscle specimen of the guinea pig was fixed, it was first perfused with a normal Kreb's solution for about 85 minutes for stabilization, and the relevant parameters of the cellular action potential before administration were recorded at about 80 min after the start of perfusion. According to groups, the three-limb tube was configured to convert the perfusates containing the vehicle, positive control, or Compound 369 at the corresponding concentrations to continuously perfuse for about 25 min. At about 20 min after the start of the perfusions, the relevant parameters of the action potentials for the ventricular papillary muscle of guinea pig were observed and recorded.

For `CCN(C)[C@H]1CC[C@]23C[C@]24CC[C@]2(C)C(C(C)=O)=CC[C@@]2(C)[C@@H]4CC[C@H]3C1(C)C` [Compound 397, (3β,5α)-4,4,14-trimethyl-3-(methylethylamino)-9,19-cyclopregnan-16-en-20-one], under “0.0005 μM”, the percent change in action potential duration at 0.0005 µM turned out to be 7.68% and the “APD, Post-administration” value amounted to 0.0785. Moreover, under “0.005 μM”, the percent change in action potential duration at 0.005 µM was -3% and the “APD, Post-administration” value was 0.0711. Under “0.05 μM”, the percent change in action potential duration at 0.05 µM worked out at 11.8% and the “APD, Post-administration” value worked out at 0.0841.
For the compound `CN(C)[C@H]1CC[C@]23C[C@]24CC[C@]2(C)C(C(=O)CO)=CC[C@@]2(C)[C@@H]4CC[C@H]3C1(C)C` [Compound 399a, (3β,5α)-4,4,14-trimethyl-21-hydroxy-3-(dimethylamino)-9,19-cyclopregnan-16-en-20-one], the “Effect on the APD value of the action potential of the papillary muscle (in words)” value (shortened to “Effect on the APD value”) is “a certain degree of prolonged effects”. In addition, for the setting “0.0005 μM”, the percent change in action potential duration at 0.0005 µM was determined as 24.4% and the “APD, Post-administration” value is 0.0960. Further, where the note is “0.005 μM”, the percent change in action potential duration at 0.005 µM was determined as 28.5% and the “APD, Post-administration” value was 0.1010. Where the note is “0.05 μM”, the percent change in action potential duration at 0.05 µM stood at 38.4% and the “APD, Post-administration” value turned out to be 0.1103.
For `CN[C@H]1CC[C@]23C[C@]24CC[C@]2(C)C(C(=O)COC(=O)CCC(=O)O)=CC[C@@]2(C)[C@@H]4CC[C@H]3C1(C)C.Cl` [Compound 522, (3β,5α)-4,4,14-trimethyl-3-(methylamino)-21-(3-carboxypropionyloxy)-9,19-cyclopregnan-16-en-20-one hydrochloride], the “Effect on the APD value” value is given as “a certain degree of prolonged effects”. Besides, where the note is “0.0005 μM”, the percent change in action potential duration at 0.0005 µM worked out at 2.87% and the “APD, Post-administration” value was determined as 0.0824. Where the note is “0.005 μM”, the percent change in action potential duration at 0.005 µM came to 27.2% and the “APD, Post-administration” value was 0.0996. Besides, under “0.05 μM”, the percent change in action potential duration at 0.05 µM worked out at 36% and the “APD, Post-administration” value was determined as 0.1102.
On to `CN[C@H]1CC[C@]23C[C@]24CC[C@]2(C)C(C(C)=O)=C(F)C[C@@]2(C)[C@@H]4CC[C@H]3C1(C)C` [Compound 387, (3β,5α)-4,4,14-trimethyl-16-fluoro-3-(methylamino)-9,19-cyclopregnan-16-en-20-one], for which the “Effect on the APD value” value is on record as “a certain degree of prolonged effects”. Further, under “0.0005 μM”, the percent change in action potential duration at 0.0005 µM was determined as 8.49% and the “APD, Post-administration” value amounted to 0.0869. In addition, for the setting “0.005 μM”, the percent change in action potential duration at 0.005 µM stood at 19.8% and the “APD, Post-administration” value came to 0.0944. Moreover, for the setting “0.05 μM”, the percent change in action potential duration at 0.05 µM came out at 24.2% and the “APD, Post-administration” value turned out to be 0.0985.
On to `CN[C@H]1CC[C@]23C[C@]24CC[C@]2(C)C(/C(C)=N\O)=CC[C@@]2(C)[C@@H]4CC[C@H]3C1(C)C` [Compound 384, (3β,5α)-4,4,14-trimethyl-3-(methylamino)-9,19-cyclopregnan-16-en-20-one oxime], for which the “Effect on the APD value” value is given as “a certain degree of prolonged effects”. For the setting “0.0005 μM”, the percent change in action potential duration at 0.0005 µM was 21.2% and the “APD, Post-administration” value is given as 0.0890. Moreover, for the setting “0.005 μM”, the percent change in action potential duration at 0.005 µM is 38.6% and the “APD, Post-administration” value turned out to be 0.0988. Under “0.05 μM”, the percent change in action potential duration at 0.05 µM was 41.3% and the “APD, Post-administration” value was found to be 0.1047.
Turning to `CN[C@H]1CC[C@]23C[C@]24CC[C@]2(C)C(/C(C)=N\OC)=CC[C@@]2(C)[C@@H]4CC[C@H]3C1(C)C` [Compound 398, (3β,5α)-4,4,14-trimethyl-3-(methylamino)-20-methoxyimino-9,19-cyclopregnan-16-ene], where the note is “0.0005 μM”, the percent change in action potential duration at 0.0005 µM was -0.86% and the “APD, Post-administration” value was 0.0695. Moreover, under “0.005 μM”, the percent change in action potential duration at 0.005 µM came to 6.63% and the “APD, Post-administration” value turned out to be 0.771. Also, under “0.05 μM”, the percent change in action potential duration at 0.05 µM came to 9.46% and the “APD, Post-administration” value is on record as 0.764.
Regarding `CC(=O)C1=CC[C@@]2(C)[C@@H]3CC[C@H]4C(C)(C)[C@@H](N(C)C5CC5)CC[C@@]45C[C@@]35CC[C@]12C` [Compound 409, (3β,5α)-4,4,14-trimethyl-3-(methylcyclopropylamino)-9,19-cyclopregnan-16-en-20-one], for the setting “0.0005 μM”, the percent change in action potential duration at 0.0005 µM came out at 1.84% and the “APD, Post-administration” value was determined as 0.0773. For the setting “0.005 μM”, the percent change in action potential duration at 0.005 µM was determined as 3.25% and the “APD, Post-administration” value is reported as 0.0762. Besides, where the note is “0.05 μM”, the percent change in action potential duration at 0.05 µM came to 6.07% and the “APD, Post-administration” value stood at 0.0786.
On to `CN[C@H]1CC[C@]23C[C@]24CC[C@]2(C)C(C(=O)COC(=O)c5ccccc5)=CC[C@@]2(C)[C@@H]4CC[C@H]3C1(C)C` [Compound 489, (3β,5α)-4,4,14-trimethyl-3-(methylamino)-21-(benzoyloxy)-9,19-cyclopregnan-16-en-20-one], for which, for the setting “0.0005 μM”, the percent change in action potential duration at 0.0005 µM is -2.09% and the “APD, Post-administration” value is 0.0750. Under “0.005 μM”, the percent change in action potential duration at 0.005 µM was 1.85% and the “APD, Post-administration” value is 0.0771. In addition, under “0.05 μM”, the percent change in action potential duration at 0.05 µM came to 9.63% and the “APD, Post-administration” value worked out at 0.820.
`CN[C@H]1CC[C@]23C[C@]24CC[C@]2(C)C(C(=O)CO)=CC[C@@]2(C)[C@@H]4CC[C@H]3C1(C)C` [Compound 385, (3β,5α)-4,4,14-trimethyl-21-hydroxy-3-(methylamino)-9,19-cyclopregnan-16-en-20-one]: the “Effect on the APD value” value is recorded as “a certain degree of prolonged effects”. Besides, under “0.0005 μM”, the percent change in action potential duration at 0.0005 µM was 16.4% and the “APD, Post-administration” value was 0.0796. Besides, where the note is “0.005 μM”, the percent change in action potential duration at 0.005 µM turned out to be 27.4% and the “APD, Post-administration” value was found to be 0.0893. Further, for the setting “0.05 μM”, the percent change in action potential duration at 0.05 µM was found to be 40.1% and the “APD, Post-administration” value is 0.975.
Take `CC(=O)C1=CC[C@@]2(C)[C@@H]3CC[C@H]4C(C)(C)[C@@H](N(C)C)CC[C@@]45C[C@@]35CC[C@]12C` [Compound 383, (3β,5α)-4,4,14-trimethyl-3-(dimethylamino)-9,19-cyclopregnan-16-en-20-one]: the “Effect on the APD value” value was “a certain degree of prolonged effects”. In addition, for the setting “0.0005 μM”, the percent change in action potential duration at 0.0005 µM worked out at 16.3% and the “APD, Post-administration” value was 0.0943. For the same compound, for the setting “0.005 μM”, the percent change in action potential duration at 0.005 µM came to 29% and the “APD, Post-administration” value amounted to 0.1024.
Turning to `CN[C@H]1CC[C@]23C[C@]24CC[C@]2(C)C(C(=O)COC(=O)c5ccccc5C(=O)O)=CC[C@@]2(C)[C@@H]4CC[C@H]3C1(C)C.Cl` [Compound 570, (3β,5α)-4,4,14-trimethyl-3-(methylamino)-21-(2-carboxybenzoyloxy)-9,19-cyclopregnan-16-en-20-one hydrochloride], the “Effect on the APD value” value is “a certain degree of prolonged effects”. Moreover, for the setting “0.0005 μM”, the percent change in action potential duration at 0.0005 µM turned out to be 12.3% and the “APD, Post-administration” value is recorded as 0.0813. Moreover, where the note is “0.005 μM”, the percent change in action potential duration at 0.005 µM was 21.8% and the “APD, Post-administration” value was determined as 0.0850. Also, where the note is “0.05 μM”, the percent change in action potential duration at 0.05 µM was 30.5% and the “APD, Post-administration” value was determined as 0.928.

Source of the values: patent publication US10568892B2, “Cycloartane tetracyclic triterpenoid compound, preparation method therefor and use thereof” (Hefei Cosource Pharmaceuticals Inc., priority 2016, dated 2020).
